{"source": "ChEMBL document CHEMBL4804286", "about": "“3-amino-4-(4-(4 (dimethylcarbamoyl) phenyl)-1,4-diazepan-1-yl) thieno [2,3-b] pyridine-2-carboxamide for use in cancer therapy and formulations comprising the same” (2020)", "parameters_in_all_cases": "scale not given: the % may be the effect or the level left", "key": {"[1]": {"system": "Tyrosine-protein kinase ABL1 (Homo sapiens), P00519 [UNDEFINED MUTATION]", "experiment": "Inhibition of non-phosphorylated human ABL1 […] mutant assessed as percent of control at 2000 nM by KINOMEscan assay relative to control"}, "[2]": {"target": "Ribosomal protein S6 kinase alpha-4 (Homo sapiens) (UniProt O75676)", "experiment": "Inhibition of human N-terminal RPS6KA4 kinase domain assessed as percent of control at 2000 nM by KINOMEscan assay relative to control"}, "[3]": {"target": "Testis-specific serine/threonine-protein kinase 1 (Homo sapiens) (UniProt Q9BXA7)", "experiment": "Inhibition of human TSSK1B assessed as percent of control at 2000 nM by KINOMEscan assay relative to control"}, "[4]": {"target": "5'-AMP-activated protein kinase catalytic subunit alpha-2 (Homo sapiens) (UniProt P54646)", "experiment": "Inhibition of human AMPK-alpha2 assessed as percent of control at 2000 nM by KINOMEscan assay relative to control"}, "[5]": {"target": "Serine/threonine-protein kinase 24 (Homo sapiens) (UniProt Q9Y6E0)", "experiment": "Inhibition of human MST3 assessed as percent of control at 2000 nM by KINOMEscan assay relative to control"}, "[6]": {"target": "Rho-associated protein kinase 2 (Homo sapiens) (UniProt O75116)", "experiment": "Inhibition of human ROCK2 assessed as percent of control at 2000 nM by KINOMEscan assay relative to control"}, "[7]": {"target": "Mitogen-activated protein kinase kinase kinase 1 (Homo sapiens) (UniProt Q13233)", "experiment": "Inhibition of human MAP3K1 assessed as percent of control at 2000 nM by KINOMEscan assay relative to control"}, "[8]": {"target": "MAP/microtubule affinity-regulating kinase 3 (Homo sapiens) (UniProt P27448)", "experiment": "Inhibition of human MARK3 assessed as percent of control at 2000 nM by KINOMEscan assay relative to control"}, "[9]": {"target": "Serine/threonine-protein kinase BRSK1 (Homo sapiens) (UniProt Q8TDC3)", "experiment": "Inhibition of human BRSK1 assessed as percent of control at 2000 nM by KINOMEscan assay relative to control"}, "[10]": {"target": "Ribosomal protein S6 kinase alpha-2 (Homo sapiens) (UniProt Q15349)", "experiment": "Inhibition of human C-terminal RSK3 kinase domain 2 assessed as percent of control at 2000 nM by KINOMEscan assay relative to control"}, "[11]": {"target": "Mitogen-activated protein kinase kinase kinase 11 (Homo sapiens) (UniProt Q16584)", "experiment": "Inhibition of human MLK3 assessed as percent of control at 2000 nM by KINOMEscan assay relative to control"}, "[12]": {"system": "Epidermal growth factor receptor (Homo sapiens), P00533 [UNDEFINED MUTATION]", "experiment": "Inhibition of human EGFR L747-E749del/A750P double mutant assessed as percent of control at 2000 nM by KINOMEscan assay relative to control"}, "[13]": {"system": "Receptor-type tyrosine-protein kinase FLT3 (Homo sapiens), P36888 [D835V]", "experiment": "Inhibition of human FLT3 D835V mutant assessed as percent of control at 2000 nM by KINOMEscan assay relative to control", "settings": "INHIBITOR"}, "[14]": {"system": "Epidermal growth factor receptor (Homo sapiens), P00533 [G719S]", "experiment": "Inhibition of human EGFR G719S assessed as percent of control at 2000 nM by KINOMEscan assay relative to control"}, "[15]": {"target": "Insulin receptor (Homo sapiens) (UniProt P06213)", "experiment": "Inhibition of human INSR assessed as percent of control at 2000 nM by KINOMEscan assay relative to control"}, "[16]": {"target": "Tyrosine-protein kinase Fgr (Homo sapiens) (UniProt P09769)", "experiment": "Inhibition of human FGR assessed as percent of control at 2000 nM by KINOMEscan assay relative to control"}, "[17]": {"target": "Cytoplasmic tyrosine-protein kinase BMX (Homo sapiens) (UniProt P51813)", "experiment": "Inhibition of human BMX assessed as percent of control at 2000 nM by KINOMEscan assay relative to control"}, "[18]": {"target": "RAC-alpha serine/threonine-protein kinase (Homo sapiens) (UniProt P31749)", "experiment": "Inhibition of human AKT1 assessed as percent of control at 2000 nM by KINOMEscan assay relative to control"}, "[19]": {"target": "Vascular endothelial growth factor receptor 2 (Homo sapiens) (UniProt P35968)", "experiment": "Inhibition of human VEGFR2 assessed as percent of control at 2000 nM by KINOMEscan assay relative to control"}, "[20]": {"target": "Beta-adrenergic receptor kinase 1 (Homo sapiens) (UniProt P25098)", "experiment": "Inhibition of human GRK2 assessed as percent of control at 2000 nM by KINOMEscan assay relative to control"}, "[21]": {"target": "G protein-coupled receptor kinase 3 (Homo sapiens) (UniProt P35626)", "sequence (P35626 whole entry)": "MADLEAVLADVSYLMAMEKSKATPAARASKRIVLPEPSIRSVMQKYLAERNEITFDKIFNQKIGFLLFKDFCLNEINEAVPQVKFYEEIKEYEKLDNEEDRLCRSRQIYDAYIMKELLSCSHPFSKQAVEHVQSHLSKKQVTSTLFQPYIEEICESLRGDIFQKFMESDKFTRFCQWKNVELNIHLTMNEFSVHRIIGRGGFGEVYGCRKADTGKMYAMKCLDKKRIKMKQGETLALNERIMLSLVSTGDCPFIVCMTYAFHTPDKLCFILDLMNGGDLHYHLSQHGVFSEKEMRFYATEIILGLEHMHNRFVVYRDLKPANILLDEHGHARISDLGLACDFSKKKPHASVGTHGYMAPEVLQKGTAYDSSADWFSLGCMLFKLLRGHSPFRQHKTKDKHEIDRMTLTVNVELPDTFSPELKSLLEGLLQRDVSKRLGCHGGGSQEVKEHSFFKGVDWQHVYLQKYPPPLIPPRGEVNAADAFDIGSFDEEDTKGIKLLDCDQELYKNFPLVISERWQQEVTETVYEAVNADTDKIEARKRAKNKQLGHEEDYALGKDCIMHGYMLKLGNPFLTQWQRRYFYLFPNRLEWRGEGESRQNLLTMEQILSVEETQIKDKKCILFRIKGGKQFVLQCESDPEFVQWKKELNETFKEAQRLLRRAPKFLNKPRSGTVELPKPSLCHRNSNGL", "experiment": "Inhibition of human GRK3 assessed as percent of control at 2000 nM by KINOMEscan assay relative to control"}, "[22]": {"target": "Serine/threonine-protein kinase/endoribonuclease IRE1 (Homo sapiens) (UniProt O75460)", "experiment": "Inhibition of human ERN1 assessed as percent of control at 2000 nM by KINOMEscan assay relative to control"}, "[23]": {"target": "Casein kinase I isoform alpha (Homo sapiens) (UniProt P48729)", "experiment": "Inhibition of human CSNK1A1 assessed as percent of control at 2000 nM by KINOMEscan assay relative to control", "settings": "INHIBITOR"}, "[24]": {"target": "Proto-oncogene tyrosine-protein kinase ROS (Homo sapiens) (UniProt P08922)", "sequence (P08922 whole entry)": "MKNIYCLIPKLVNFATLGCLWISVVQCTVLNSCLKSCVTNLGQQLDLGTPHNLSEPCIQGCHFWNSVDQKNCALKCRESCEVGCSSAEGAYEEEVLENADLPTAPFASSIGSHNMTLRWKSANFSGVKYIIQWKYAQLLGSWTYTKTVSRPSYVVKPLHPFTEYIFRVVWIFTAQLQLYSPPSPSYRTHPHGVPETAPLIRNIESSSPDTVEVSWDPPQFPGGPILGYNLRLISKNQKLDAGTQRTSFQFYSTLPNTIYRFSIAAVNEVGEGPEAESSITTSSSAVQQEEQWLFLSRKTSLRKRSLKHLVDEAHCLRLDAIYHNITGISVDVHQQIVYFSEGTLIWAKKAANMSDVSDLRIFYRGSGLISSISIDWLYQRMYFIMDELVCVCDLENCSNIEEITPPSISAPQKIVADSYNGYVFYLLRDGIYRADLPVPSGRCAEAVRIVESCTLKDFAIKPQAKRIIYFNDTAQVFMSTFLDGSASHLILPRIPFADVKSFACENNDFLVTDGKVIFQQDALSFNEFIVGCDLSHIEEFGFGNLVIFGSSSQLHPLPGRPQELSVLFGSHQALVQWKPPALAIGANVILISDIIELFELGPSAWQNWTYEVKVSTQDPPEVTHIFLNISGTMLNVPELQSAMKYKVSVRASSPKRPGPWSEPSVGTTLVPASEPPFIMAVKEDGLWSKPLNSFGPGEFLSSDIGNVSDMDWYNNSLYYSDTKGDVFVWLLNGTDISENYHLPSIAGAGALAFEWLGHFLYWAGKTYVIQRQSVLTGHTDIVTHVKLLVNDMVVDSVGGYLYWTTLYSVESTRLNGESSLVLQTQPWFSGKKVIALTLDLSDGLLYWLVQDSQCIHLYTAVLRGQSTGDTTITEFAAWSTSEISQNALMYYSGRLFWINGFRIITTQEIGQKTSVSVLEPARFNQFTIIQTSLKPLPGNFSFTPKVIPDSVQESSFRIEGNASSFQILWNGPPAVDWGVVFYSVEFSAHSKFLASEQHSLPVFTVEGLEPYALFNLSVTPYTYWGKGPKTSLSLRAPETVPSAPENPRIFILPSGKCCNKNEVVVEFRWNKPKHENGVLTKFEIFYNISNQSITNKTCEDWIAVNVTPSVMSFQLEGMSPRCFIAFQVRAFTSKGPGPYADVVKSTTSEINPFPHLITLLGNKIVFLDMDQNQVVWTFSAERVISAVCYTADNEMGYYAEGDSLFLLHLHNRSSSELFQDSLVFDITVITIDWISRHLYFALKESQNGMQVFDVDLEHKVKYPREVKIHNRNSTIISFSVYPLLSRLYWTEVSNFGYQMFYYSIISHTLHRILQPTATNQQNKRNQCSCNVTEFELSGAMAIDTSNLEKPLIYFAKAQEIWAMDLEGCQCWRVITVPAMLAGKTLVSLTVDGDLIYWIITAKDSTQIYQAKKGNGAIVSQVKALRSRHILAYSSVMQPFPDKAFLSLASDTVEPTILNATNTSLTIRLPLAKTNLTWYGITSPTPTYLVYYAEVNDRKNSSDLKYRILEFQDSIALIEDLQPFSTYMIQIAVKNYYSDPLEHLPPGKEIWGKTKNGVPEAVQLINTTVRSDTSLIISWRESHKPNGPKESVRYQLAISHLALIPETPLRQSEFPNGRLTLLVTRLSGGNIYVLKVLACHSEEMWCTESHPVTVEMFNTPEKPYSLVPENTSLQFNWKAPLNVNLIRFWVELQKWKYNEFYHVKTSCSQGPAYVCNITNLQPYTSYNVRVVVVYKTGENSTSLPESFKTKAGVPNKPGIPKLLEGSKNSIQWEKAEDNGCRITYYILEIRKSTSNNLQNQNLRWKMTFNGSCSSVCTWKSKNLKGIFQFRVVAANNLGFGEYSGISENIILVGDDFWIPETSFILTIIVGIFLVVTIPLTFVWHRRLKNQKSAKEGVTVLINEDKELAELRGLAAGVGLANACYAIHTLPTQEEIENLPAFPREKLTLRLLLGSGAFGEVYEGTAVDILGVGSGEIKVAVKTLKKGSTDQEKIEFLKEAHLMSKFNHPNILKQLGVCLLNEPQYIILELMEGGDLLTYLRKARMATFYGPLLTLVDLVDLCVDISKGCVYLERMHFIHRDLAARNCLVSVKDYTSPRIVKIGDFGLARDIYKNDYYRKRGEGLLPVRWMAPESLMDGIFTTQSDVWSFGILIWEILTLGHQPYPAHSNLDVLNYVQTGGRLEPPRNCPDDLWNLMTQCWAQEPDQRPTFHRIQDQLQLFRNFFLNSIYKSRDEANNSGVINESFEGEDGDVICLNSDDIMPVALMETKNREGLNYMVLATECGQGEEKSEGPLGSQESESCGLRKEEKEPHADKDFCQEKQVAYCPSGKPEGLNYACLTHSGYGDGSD", "experiment": "Inhibition of human ROS1 assessed as percent of control at 2000 nM by KINOMEscan assay relative to control"}, "[25]": {"target": "Cyclin-dependent kinase 18 (Homo sapiens) (UniProt Q07002)", "sequence (Q07002 whole entry)": "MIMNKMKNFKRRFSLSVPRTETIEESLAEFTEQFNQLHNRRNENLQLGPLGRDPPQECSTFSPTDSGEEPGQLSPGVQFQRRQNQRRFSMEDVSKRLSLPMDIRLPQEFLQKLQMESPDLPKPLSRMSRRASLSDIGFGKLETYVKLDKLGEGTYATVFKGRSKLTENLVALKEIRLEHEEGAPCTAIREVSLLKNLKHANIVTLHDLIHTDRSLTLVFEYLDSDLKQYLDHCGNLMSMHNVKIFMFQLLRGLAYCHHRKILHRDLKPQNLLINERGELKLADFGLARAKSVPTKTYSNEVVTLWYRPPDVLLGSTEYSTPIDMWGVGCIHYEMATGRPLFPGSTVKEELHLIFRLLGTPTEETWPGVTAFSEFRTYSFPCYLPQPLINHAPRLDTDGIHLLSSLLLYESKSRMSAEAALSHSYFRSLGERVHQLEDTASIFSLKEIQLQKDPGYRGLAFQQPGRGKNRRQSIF", "experiment": "Inhibition of human PCTK3 assessed as percent of control at 2000 nM by KINOMEscan assay relative to control"}, "[26]": {"target": "Ephrin type-A receptor 8 (Homo sapiens) (UniProt P29322)", "experiment": "Inhibition of human EPHA8 assessed as percent of control at 2000 nM by KINOMEscan assay relative to control"}, "[27]": {"system": "ALK tyrosine kinase receptor (Homo sapiens), Q9UM73 [L1196M]", "experiment": "Inhibition of human ALK L1196M mutant assessed as percent of control at 2000 nM by KINOMEscan assay relative to control"}, "[28]": {"system": "Mast/stem cell growth factor receptor Kit (Homo sapiens), P10721 [D816H]", "experiment": "Inhibition of human KIT D816H mutant assessed as percent of control at 2000 nM by KINOMEscan assay relative to control"}, "[29]": {"target": "Mitogen-activated protein kinase 10 (Homo sapiens) (UniProt P53779)", "sequence (P53779 whole entry)": "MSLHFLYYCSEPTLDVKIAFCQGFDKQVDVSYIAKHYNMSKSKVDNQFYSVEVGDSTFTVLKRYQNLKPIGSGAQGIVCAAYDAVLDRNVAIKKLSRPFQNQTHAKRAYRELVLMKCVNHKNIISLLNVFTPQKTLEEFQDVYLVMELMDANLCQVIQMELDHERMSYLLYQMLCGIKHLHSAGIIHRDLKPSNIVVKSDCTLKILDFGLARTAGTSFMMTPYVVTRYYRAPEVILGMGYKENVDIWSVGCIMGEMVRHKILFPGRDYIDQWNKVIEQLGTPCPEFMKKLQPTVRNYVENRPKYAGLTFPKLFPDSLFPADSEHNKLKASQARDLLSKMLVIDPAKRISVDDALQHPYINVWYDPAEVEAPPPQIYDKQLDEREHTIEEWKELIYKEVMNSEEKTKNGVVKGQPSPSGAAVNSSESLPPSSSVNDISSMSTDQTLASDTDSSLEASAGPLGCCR", "experiment": "Inhibition of human JNK3 assessed as percent of control at 2000 nM by KINOMEscan assay relative to control"}, "[30]": {"target": "Serine/threonine-protein kinase N2 (Homo sapiens) (UniProt Q16513)", "sequence (Q16513 whole entry, looked up)": "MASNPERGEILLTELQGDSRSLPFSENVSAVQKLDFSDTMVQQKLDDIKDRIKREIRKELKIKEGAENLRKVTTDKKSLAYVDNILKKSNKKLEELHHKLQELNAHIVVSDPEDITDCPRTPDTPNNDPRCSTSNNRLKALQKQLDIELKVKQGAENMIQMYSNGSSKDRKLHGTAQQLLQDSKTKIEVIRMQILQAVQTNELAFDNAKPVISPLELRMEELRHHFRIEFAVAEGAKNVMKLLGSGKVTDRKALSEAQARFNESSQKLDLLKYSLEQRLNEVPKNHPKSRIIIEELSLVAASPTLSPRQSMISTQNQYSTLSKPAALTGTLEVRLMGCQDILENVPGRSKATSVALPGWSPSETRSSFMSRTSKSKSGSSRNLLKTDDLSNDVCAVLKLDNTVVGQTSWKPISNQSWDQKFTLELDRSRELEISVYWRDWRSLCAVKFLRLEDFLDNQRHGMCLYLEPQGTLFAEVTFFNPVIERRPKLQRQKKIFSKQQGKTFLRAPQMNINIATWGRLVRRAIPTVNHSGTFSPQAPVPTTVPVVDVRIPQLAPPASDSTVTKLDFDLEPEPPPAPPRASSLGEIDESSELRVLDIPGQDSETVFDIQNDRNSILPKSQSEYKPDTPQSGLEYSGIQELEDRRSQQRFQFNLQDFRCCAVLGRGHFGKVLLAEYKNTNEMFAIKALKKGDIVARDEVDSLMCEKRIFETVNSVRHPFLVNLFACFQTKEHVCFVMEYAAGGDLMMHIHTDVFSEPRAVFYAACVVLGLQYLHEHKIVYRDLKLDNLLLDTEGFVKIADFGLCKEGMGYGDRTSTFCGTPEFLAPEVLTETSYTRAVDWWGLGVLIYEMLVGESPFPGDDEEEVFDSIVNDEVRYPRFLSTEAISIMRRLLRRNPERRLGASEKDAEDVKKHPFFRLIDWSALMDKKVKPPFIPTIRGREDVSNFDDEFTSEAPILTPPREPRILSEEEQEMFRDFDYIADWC", "experiment": "Inhibition of human PKN2 assessed as percent of control at 2000 nM by KINOMEscan assay relative to control"}}, "note": "Several values for one entry are separate records, joined by “and”; a condition that tells them apart may be missing. Equal entries are not always repeated."}
{"smiles": "CN(C)C(=O)c1ccc(N2CCCN(c3ccnc4sc(C(N)=O)c(N)c34)CC2)cc1", "values": [{"measurement": "Activity", "setting": "[1]", "result": "100% and 76%"}, {"measurement": "Activity", "setting": "[2]", "result": "96% and 100%"}, {"measurement": "Activity", "setting": "[3]", "result": "80% and 99%"}, {"measurement": "Activity", "setting": "[4]", "result": "80% and 95%"}, {"measurement": "Activity", "setting": "[5]", "result": "97% and 84%"}, {"measurement": "Activity", "setting": "[6]", "result": "100% and 80%"}, {"measurement": "Activity", "setting": "[7]", "result": "84% and 90%"}, {"measurement": "Activity", "setting": "[8]", "result": "98% and 100%"}, {"measurement": "Activity", "setting": "[9]", "result": "86% and 97%"}, {"measurement": "Activity", "setting": "[10]", "result": "100% and 89%"}, {"measurement": "Activity", "setting": "[11]", "result": "99% and 100%"}, {"measurement": "Activity", "setting": "[12]", "result": "99% and 100%"}, {"measurement": "Activity", "setting": "[13]", "result": "33% and 14%"}, {"measurement": "Activity", "setting": "[14]", "result": 100, "unit": "%"}, {"measurement": "Activity", "setting": "[15]", "result": "97% and 80%"}, {"measurement": "Activity", "setting": "[16]", "result": 100, "unit": "%"}, {"measurement": "Activity", "setting": "[17]", "result": "93% and 100%"}, {"measurement": "Activity", "setting": "[18]", "result": 100, "unit": "%"}, {"measurement": "Activity", "setting": "[19]", "result": "67% and 84%"}, {"measurement": "Activity", "setting": "[20]", "result": "88% and 70%"}, {"measurement": "Activity", "setting": "[21]", "result": "99% and 87%"}, {"measurement": "Activity", "setting": "[22]", "result": "100% and 80%"}, {"measurement": "Activity", "setting": "[23]", "result": "33% and 12%"}, {"measurement": "Activity", "setting": "[24]", "result": "95% and 100%"}, {"measurement": "Activity", "setting": "[25]", "result": 100, "unit": "%"}, {"measurement": "Activity", "setting": "[26]", "result": "94% and 83%"}, {"measurement": "Activity", "setting": "[27]", "result": "96% and 92%"}, {"measurement": "Activity", "setting": "[28]", "result": "91% and 66%"}, {"measurement": "Activity", "setting": "[29]", "result": 91, "unit": "%"}, {"measurement": "Activity", "setting": "[29]; INHIBITOR", "result": 44, "unit": "%"}, {"measurement": "Activity", "setting": "[30]", "result": 100, "unit": "%"}]}
